Measured values taken from publication PMC7827406, “Structure–Activity Relationship (SAR) Study of Spautin-1 to Entail the Discovery of Novel NEK4 Inhibitors” (International Journal of Molecular Sciences, 2021).
Like-named read-outs stand apart in the source and are kept apart here.

Legend:
Experiment in all cases: biochemical
Set-up in all cases: Eurofins KinaseProfiler full panel at Km ATP, residual kinase activity (%) relative to DMSO
NEK3(h) = target: T1, NEK3(h) (Homo sapiens, UniProt P51956)
T1 sequence (P51956 1-506): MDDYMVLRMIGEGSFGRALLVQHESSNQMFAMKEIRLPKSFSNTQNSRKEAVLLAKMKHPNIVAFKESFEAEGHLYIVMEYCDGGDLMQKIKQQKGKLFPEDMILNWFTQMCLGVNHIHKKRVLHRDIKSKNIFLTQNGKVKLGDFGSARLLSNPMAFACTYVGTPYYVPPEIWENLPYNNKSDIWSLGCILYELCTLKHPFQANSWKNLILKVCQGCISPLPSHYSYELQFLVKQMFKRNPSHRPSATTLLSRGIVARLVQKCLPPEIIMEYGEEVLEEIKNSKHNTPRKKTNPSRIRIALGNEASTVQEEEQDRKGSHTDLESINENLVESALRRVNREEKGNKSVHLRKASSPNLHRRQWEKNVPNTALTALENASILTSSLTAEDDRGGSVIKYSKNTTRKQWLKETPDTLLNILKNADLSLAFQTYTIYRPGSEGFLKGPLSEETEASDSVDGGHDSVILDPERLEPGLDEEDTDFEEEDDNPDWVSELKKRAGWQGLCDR
In short: (§1)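 Two 10 µM single-concentration screens were run: a competition-binding screen, in which DNA-tagged kinase bound to immobilized ligands was quantified by qPCR, and a radiometric activity panel at Km ATP. Each is expressed as residual kinase activity (%).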

Flt1(h) = Flt1(h) (Homo sapiens, UniProt P17948)
Flt1(h), sequence (P17948 whole entry): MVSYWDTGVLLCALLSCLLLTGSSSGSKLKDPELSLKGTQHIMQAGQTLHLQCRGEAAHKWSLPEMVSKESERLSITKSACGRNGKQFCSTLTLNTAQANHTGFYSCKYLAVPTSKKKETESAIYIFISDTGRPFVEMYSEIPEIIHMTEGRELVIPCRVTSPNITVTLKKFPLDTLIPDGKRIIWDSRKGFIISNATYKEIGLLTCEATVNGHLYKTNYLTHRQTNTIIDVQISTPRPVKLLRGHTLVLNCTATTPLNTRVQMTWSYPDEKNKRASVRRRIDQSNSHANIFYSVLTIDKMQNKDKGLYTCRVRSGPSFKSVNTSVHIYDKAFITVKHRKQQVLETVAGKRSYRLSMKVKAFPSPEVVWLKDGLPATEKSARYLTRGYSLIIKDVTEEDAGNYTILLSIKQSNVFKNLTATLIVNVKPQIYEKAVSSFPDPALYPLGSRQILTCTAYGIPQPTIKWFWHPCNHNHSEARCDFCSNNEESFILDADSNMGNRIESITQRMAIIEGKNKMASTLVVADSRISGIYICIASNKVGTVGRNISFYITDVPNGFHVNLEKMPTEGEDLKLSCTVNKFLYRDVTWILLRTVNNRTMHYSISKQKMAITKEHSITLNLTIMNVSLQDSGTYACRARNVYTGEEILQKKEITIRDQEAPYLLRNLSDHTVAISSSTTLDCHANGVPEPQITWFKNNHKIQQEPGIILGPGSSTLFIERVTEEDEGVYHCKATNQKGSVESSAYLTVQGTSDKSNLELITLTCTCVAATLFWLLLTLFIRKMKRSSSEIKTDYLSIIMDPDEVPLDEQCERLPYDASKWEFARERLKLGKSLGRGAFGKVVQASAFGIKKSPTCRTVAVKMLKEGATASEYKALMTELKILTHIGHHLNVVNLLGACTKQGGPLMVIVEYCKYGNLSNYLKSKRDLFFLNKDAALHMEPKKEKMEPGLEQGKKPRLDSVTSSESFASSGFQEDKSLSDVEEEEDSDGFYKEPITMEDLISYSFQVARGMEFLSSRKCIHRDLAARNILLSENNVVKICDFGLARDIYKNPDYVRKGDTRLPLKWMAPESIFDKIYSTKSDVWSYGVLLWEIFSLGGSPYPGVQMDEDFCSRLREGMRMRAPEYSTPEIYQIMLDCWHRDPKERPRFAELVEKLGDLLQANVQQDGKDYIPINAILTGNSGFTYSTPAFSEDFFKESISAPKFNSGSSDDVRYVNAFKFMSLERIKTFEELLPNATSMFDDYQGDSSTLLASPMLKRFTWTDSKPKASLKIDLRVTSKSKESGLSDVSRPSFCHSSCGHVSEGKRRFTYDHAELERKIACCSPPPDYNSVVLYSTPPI
In short: as §1

LTK(h) = LTK(h) (Homo sapiens, UniProt P29376)
LTK(h), sequence (P29376 whole entry): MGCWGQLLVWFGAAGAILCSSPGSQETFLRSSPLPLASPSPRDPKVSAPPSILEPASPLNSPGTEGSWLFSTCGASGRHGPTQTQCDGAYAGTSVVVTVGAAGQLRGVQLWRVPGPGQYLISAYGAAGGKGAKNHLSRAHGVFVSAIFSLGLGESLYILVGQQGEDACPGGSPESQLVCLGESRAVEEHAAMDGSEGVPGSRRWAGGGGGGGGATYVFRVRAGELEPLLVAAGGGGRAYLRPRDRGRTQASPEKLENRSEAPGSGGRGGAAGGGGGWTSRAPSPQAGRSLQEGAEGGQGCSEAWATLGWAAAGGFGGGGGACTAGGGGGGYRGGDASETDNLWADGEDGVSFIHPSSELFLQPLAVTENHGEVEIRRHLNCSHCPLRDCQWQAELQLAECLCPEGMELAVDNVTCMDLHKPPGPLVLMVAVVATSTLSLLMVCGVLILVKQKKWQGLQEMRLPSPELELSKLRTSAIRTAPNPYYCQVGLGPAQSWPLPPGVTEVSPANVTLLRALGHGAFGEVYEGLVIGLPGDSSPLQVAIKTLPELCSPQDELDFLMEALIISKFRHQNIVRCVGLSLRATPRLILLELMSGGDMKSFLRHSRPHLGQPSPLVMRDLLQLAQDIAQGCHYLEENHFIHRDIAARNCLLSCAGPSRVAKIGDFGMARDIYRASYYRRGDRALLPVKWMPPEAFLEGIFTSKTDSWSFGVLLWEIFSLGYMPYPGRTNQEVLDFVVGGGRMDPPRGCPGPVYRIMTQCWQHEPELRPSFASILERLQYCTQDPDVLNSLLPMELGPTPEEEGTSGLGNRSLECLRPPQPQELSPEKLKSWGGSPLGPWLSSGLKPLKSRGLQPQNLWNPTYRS
In short: as §1

MLK1(h) = target: T2, MLK1(h) (Homo sapiens, UniProt P80192)
T2 construct: gene MAP3K9
T2 sequence (P80192 whole entry): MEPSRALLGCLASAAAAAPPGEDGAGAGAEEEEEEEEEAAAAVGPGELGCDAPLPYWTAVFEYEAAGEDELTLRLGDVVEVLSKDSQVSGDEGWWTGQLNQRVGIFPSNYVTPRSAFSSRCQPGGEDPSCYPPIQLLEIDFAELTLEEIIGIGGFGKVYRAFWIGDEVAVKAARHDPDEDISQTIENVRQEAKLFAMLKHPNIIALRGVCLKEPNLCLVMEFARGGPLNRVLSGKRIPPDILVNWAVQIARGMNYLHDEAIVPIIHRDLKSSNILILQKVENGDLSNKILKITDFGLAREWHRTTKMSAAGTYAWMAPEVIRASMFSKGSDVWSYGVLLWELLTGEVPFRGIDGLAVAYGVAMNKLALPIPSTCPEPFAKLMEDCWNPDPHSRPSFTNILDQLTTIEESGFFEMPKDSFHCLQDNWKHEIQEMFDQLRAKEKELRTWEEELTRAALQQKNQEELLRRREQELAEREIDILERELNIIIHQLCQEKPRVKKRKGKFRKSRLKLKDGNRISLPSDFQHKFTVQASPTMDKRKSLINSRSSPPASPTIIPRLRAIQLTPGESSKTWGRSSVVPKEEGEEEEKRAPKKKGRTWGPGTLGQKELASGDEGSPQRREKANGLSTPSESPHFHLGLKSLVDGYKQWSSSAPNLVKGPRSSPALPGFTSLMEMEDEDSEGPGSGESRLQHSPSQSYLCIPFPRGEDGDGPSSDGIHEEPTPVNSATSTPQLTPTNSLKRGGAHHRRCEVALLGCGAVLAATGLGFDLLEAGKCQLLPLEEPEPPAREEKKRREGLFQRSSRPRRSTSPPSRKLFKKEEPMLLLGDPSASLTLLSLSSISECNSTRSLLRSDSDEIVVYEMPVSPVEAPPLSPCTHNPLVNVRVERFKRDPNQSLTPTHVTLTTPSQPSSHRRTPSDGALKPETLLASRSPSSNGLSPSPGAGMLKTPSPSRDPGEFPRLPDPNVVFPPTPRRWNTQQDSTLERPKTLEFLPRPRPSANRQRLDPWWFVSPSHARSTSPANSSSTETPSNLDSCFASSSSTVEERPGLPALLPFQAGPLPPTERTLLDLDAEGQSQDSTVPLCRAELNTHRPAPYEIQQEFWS
In short: as §1

DCAMKL2(h) = target: T3, DCAMKL2(h) (Homo sapiens, UniProt Q8N568)
T3 construct: gene DCLK2
T3 sequence (Q8N568 1-766): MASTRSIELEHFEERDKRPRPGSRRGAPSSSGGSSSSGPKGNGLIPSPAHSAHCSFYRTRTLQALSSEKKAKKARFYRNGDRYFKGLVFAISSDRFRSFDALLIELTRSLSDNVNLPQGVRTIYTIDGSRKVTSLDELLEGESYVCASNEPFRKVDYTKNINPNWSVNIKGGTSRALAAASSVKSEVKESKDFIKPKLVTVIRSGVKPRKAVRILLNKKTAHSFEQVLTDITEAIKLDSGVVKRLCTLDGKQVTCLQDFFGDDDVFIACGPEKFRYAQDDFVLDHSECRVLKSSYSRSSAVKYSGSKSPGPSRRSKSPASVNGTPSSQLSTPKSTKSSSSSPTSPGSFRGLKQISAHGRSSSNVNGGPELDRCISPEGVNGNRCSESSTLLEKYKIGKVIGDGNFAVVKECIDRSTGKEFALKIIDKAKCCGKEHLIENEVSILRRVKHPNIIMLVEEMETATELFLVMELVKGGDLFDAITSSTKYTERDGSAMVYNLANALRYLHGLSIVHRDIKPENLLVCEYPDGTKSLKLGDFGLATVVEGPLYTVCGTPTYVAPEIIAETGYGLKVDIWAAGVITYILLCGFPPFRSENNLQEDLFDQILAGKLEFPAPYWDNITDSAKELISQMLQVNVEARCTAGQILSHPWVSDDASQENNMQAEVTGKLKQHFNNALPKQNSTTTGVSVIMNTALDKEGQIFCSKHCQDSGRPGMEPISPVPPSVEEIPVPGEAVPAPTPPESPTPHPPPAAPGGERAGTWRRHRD
In short: as §1

CDK17/cyclinY(h) = CDK17/cyclinY(h) (Homo sapiens, UniProt Q00537)
CDK17/cyclinY(h), sequence (Q00537 whole entry): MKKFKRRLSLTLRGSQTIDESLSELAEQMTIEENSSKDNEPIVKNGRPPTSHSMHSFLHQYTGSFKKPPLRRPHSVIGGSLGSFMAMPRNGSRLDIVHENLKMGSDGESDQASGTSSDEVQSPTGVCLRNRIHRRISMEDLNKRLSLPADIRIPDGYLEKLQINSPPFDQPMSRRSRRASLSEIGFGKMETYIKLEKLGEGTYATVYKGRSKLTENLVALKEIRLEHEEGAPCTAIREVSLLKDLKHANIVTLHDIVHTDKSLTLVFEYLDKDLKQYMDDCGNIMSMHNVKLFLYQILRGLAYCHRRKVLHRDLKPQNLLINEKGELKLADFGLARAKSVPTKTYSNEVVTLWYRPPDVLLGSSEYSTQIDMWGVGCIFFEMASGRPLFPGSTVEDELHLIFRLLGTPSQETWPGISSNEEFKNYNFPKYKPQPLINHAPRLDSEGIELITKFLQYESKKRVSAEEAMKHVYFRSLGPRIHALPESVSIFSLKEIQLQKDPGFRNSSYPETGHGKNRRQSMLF
CDK17/cyclinY(h), sequence (Q8ND76 whole entry partner): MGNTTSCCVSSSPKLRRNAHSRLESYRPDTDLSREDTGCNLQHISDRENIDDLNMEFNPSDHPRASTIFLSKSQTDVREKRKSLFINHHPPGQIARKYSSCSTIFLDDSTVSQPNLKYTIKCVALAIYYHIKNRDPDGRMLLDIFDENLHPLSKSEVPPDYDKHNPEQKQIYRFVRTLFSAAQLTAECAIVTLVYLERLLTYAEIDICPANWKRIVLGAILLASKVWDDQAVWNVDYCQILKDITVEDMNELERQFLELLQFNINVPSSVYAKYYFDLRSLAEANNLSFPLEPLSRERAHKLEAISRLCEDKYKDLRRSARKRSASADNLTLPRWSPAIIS
In short: as §1

DRAK2(h) = target: T4, DRAK2(h) (Homo sapiens, UniProt O94768)
T4 construct: gene STK17B
T4 sequence (O94768 1-372): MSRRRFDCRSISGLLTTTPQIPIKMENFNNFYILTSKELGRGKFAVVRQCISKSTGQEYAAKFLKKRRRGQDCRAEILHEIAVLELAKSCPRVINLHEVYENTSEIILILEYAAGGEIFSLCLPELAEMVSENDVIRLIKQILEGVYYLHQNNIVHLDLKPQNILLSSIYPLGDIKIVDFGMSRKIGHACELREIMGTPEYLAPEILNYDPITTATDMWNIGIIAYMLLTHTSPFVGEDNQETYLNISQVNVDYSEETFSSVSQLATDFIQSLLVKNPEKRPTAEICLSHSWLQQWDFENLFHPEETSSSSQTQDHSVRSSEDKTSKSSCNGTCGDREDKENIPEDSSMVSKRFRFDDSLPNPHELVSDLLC
In short: as §1

Abl (H396P) (h) = target: T5, Abl (H396P) (h) (Homo sapiens, UniProt P00519, H396P)
T5 construct: gene ABL1
In short: as §1

MSK1(h) = target: T6, MSK1(h) (Homo sapiens, UniProt O75582)
T6 construct: gene RPS6KA5
T6 sequence (O75582 whole entry): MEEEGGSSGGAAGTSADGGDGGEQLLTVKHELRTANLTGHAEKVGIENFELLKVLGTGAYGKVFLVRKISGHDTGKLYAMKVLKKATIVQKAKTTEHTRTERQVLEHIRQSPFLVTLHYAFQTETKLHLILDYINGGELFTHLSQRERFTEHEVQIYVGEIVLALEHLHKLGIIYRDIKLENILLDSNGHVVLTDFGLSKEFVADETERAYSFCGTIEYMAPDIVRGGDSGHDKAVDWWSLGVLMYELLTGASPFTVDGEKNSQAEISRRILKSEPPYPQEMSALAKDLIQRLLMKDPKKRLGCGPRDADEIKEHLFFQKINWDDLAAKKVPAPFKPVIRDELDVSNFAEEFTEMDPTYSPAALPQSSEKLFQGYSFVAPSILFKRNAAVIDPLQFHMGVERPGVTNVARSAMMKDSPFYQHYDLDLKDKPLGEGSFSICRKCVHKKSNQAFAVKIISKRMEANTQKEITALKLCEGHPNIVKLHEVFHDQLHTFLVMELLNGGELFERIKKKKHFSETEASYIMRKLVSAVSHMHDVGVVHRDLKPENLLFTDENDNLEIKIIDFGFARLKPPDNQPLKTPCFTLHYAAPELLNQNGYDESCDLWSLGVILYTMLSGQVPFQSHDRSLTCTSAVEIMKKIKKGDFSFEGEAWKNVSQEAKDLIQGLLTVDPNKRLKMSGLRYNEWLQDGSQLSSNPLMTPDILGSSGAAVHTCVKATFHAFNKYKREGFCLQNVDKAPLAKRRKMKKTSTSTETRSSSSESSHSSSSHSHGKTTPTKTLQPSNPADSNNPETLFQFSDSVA
In short: as §1

[1] = read-out: Residual activity (%) 5ay
[2] = read-out: Residual activity (%) Spautin-1 5aa
[3] = read-out: Residual activity (%) 5at
[4] = read-out: Residual activity (%) 5as

**Q.** Which results are given for `COc1ccc2ncnc(Nc3cccc(F)c3)c2c1` [5ay, N-(3-Fluorophenyl)-6-Methoxy-4-Quinazolinamine]?
**A.** remaining activity at 10 µM (NEK3(h); [1]): 87%; remaining activity at 10 µM (Flt1(h); [1]): 87%; remaining activity at 10 µM (LTK(h); [1]): 76%; remaining activity at 10 µM (MLK1(h); [1]): 68%; remaining activity at 10 µM (DCAMKL2(h); [1]): 80%; remaining activity at 10 µM (CDK17/cyclinY(h); [1]): 74%; remaining activity at 10 µM (DRAK2(h); [1]): 65%; remaining activity at 10 µM (Abl (H396P) (h); [1]): 76%; remaining activity at 10 µM (MSK1(h); [1]): 74%

**Q.** Which results are given for `Fc1ccc(CNc2ncnc3ccc(F)cc23)cc1` [5aa, 6-Fluoro-N-(4-fluorobenzyl)-4-Quinazolinamine]?
**A.** remaining activity at 10 µM (NEK3(h); [2]): 71%; remaining activity at 10 µM (Flt1(h); [2]): 101%; remaining activity at 10 µM (LTK(h); [2]): 88%; remaining activity at 10 µM (MLK1(h); [2]): 89%; remaining activity at 10 µM (DCAMKL2(h); [2]): 81%; remaining activity at 10 µM (CDK17/cyclinY(h); [2]): 82%; remaining activity at 10 µM (DRAK2(h); [2]): 88%; remaining activity at 10 µM (Abl (H396P) (h); [2]): 95%; remaining activity at 10 µM (MSK1(h); [2]): 90%

**Q.** Which results are given for `Fc1ccc2ncnc(NCCc3ccc(Cl)cc3)c2c1` [5at, N-[2-(4-Chlorophenyl)Ethyl]-6-Fluoro-4-Quinazolinamine]?
**A.** remaining activity at 10 µM (NEK3(h); [3]): 99%; remaining activity at 10 µM (Flt1(h); [3]): 80%; remaining activity at 10 µM (LTK(h); [3]): 74%; remaining activity at 10 µM (MLK1(h); [3]): 76%; remaining activity at 10 µM (DCAMKL2(h); [3]): 57%; remaining activity at 10 µM (CDK17/cyclinY(h); [3]): 88%; remaining activity at 10 µM (DRAK2(h); [3]): 88%; remaining activity at 10 µM (Abl (H396P) (h); [3]): 80%; remaining activity at 10 µM (MSK1(h); [3]): 79%

**Q.** With `Fc1ccc(CCNc2ncnc3ccc(F)cc23)cc1` [5as, 6-Fluoro-N-[2-(4-Fluorophenyl)Ethyl]-4-Quinazolinamine] as the compound, how does the remaining activity at 10 µM (NEK3(h); [4]) read?
**A.** Its remaining activity at 10 µM is 80%.

**Q.** And the remaining activity at 10 µM (Flt1(h); [4])?
**A.** Its remaining activity at 10 µM is 86%.

**Q.** And the remaining activity at 10 µM (LTK(h); [4])?
**A.** The remaining activity at 10 µM was 76%.

**Q.** What about the remaining activity at 10 µM (MLK1(h); [4]) of the same compound?
**A.** Its remaining activity at 10 µM is 77%.

**Q.** What about the remaining activity at 10 µM (DCAMKL2(h); [4]) of the same compound?
**A.** Its remaining activity at 10 µM is 64%.

**Q.** And the remaining activity at 10 µM (CDK17/cyclinY(h); [4])?
**A.** Its remaining activity at 10 µM is 80%.

**Q.** And the remaining activity at 10 µM (DRAK2(h); [4])?
**A.** Its remaining activity at 10 µM is 73%.

**Q.** What about the remaining activity at 10 µM (Abl (H396P) (h); [4]) of the same compound?
**A.** Its remaining activity at 10 µM is 86%.

**Q.** What about the remaining activity at 10 µM (MSK1(h); [4]) of the same compound?
**A.** Its remaining activity at 10 µM is 70%.
